This is an account of results in BindingDB's records for doi:10.1016/j.bmcl.2004.10.084 (University of Illinois At Chicago, 2005).

The target of the experiment is Beta-secretase 1 (Homo sapiens, UniProt P56817). As to the kind of experiment: Enzyme Inhibition Measurements. Conditions: pH 4.5; 37 °C.
Beta-secretase 1, sequence (P56817 whole entry): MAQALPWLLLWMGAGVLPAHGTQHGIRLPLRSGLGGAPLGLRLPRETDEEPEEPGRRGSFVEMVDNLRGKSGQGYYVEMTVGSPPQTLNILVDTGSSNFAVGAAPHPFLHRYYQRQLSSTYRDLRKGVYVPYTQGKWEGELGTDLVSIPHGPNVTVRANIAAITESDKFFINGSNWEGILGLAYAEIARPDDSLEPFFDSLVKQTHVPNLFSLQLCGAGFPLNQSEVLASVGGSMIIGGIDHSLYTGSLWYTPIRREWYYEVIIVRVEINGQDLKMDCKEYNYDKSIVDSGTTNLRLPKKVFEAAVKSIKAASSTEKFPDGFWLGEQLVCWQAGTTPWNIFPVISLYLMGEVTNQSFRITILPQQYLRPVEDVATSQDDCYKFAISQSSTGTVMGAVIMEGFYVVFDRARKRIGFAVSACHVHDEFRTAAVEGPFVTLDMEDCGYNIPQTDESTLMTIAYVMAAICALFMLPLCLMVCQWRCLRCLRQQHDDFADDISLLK

Procedure: Enzyme activities were assayed by monitoring the hydrolysis of substrate in the presence or absence of inhibitor compounds. The hydrolysis was recorded as the increase in fluorescence intensity over a 10 min time period. […] The Ki was calculated by using Ki = IC50/ (1 + [S]/Km), and a Km value determined according to Michaelis-Menten.

The compound `C=CCNC(=O)C[C@H](NC(=O)[C@@H](NC(=O)OCC=C)C(C)C)C(=O)N[C@@H](CC(C)C)[C@@H](O)C[C@@H](C)C(=O)N[C@H](C(=O)NCc1ccccc1)C(C)C` [prop-2-en-1-yl N-[(1S)-1-{[(1S)-1-{[(1R,3S,4S)-1-{[(1S)-1-(benzylcarbamoyl)-2-methylpropyl]carbamoyl}-3-hydroxy-1,6-dimethylheptan-4-yl]carbamoyl}-2-(prop-2-en-1-ylcarbamoyl)ethyl]carbamoyl}-2-methylpropyl]carbamate] returned a Ki of 0.0266 µM.
